In one series the test system is A. baumannii biofilm. In words: microbe, parasite or virus in culture. It counts as cell-based. Particulars: Acinetobacter baumannii; 10 μg/mL, positive control; read-out: biofilm formation inhibition. The protocol: In order to investigate an effect of octopromycin on the biofilm of A. baumannii, analysis for biofilm formation inhibition and eradication was performed.
To examine the inhibitory effect of an octopromycin peptide on biofilm formation, A. baumannii was cultured in TSB. The bacteria were diluted to 5×10^5 CFU/mL in a TSB medium, then 97.5 mL and 90 mL of bacterial suspensions were mixed with 2.5 mL and 10 mL of peptides, respectively, to reach 50 μg/mL (MIC) and 200 μg/mL (MBC), and cultured on a 96-well plate for 24 hours. Then, the supernatant was carefully removed, and the formed biofilm was fixed with 100% methanol for 10 minutes. After methanol was removed, the biofilm was stained with 0.1% crystal violet for 30 minutes. Subsequently, the plate was washed 3 times with distilled water. Finally, the biofilm was completely dissolved in 95% ethanol and absorbance was measured at 495 nm using a microplate reader (Bio-Rad, USA).

Series [1] concerns A. baumannii. Put plainly: Propidium iodide (PI) uptake / FDA staining membrane permeability assay (CLSM). Format: cell-based, Acinetobacter baumannii. Particulars: 10 μg/mL, positive control. As to the method:
Propidium iodide (PI) uptake assay was performed to evaluate an effect of octopromycin on association with the membrane permeability and apoptosis of A. baumannii. The PI was a red fluorescent nuclear and chromosome counter dye that indicated changes in cell membrane permeability, and was used to detect the presence of dead cells and simultaneously observe live cells by observing green fluorescence (FDA). A. baumannii treated with octopromycin at MIC; 50 μg/mL and MBC; 200 μg/mL levels and control cell suspensions were centrifuged (5000 rpm for 2 minutes), washed with PBS and the pellets were suspended in PBS. Subsequently, the cells were cultured with 20 μg/mL of PI (Sigma Aldrich, USA) and 8 μg/mL of FDA (Sigma Aldrich, USA) at 25° C. for 30 minutes in the dark, and finally, the remaining dye was washed with PBS. Finally, a 5 μL drop of each suspension was placed on a cover slip and fluorescence images were observed using a CLSM integrated with a scan head on an Axiovert 200M inverted microscope (Carl Zeiss, Germany).

Series [2] deals with A. baumannii. In words: Time-kill kinetics (OD 595 nm). Format: cell-based, Acinetobacter baumannii. The conditions noted are these: 10 μg/mL. The protocol: The MIC and MBC levels of octopromycin in A. baumannii were determined using media dilution tests and subcultures, respectively, according to the guidelines of the Clinical and Laboratory Standards Institute (CLSI, 2008 M27-A3). Several concentrations of octopromycin (0, 5, 10, 25, 50, 100, and 200 μg/mL) were tested as standard antibiotics (positive control) together with chloramphenicol (10 μg/mL, Sigma-Aldrich, USA) acting on A. baumannii growth and the MBC of chloramphenicol was confirmed according to the same procedure. The MIC was determined as the minimum concentration required to inhibit visual growth of A. baumannii. […] For analysis of time-kill kinetics, A. baumannii was cultured with octopromycin at various concentrations (0, 25, 50, 100, and 200 μg/mL) in the TSA medium at 25° C., and at different time intervals (0, 3, 6, 9, 12, 18, and 21 h), the absorbance was measured at 595 nm using a microplate reader (Bio-Rad, Saint Louis, USA) to confirm an inhibitory effect after culturing.

The next series concerns mouse red blood cells. Format: cell-based. As to the method: Systemic application of octopromycin as an antibiotic requires low toxicity to red blood cells. Accordingly, an in vitro hemolysis assay was performed using mouse red blood cells […].
The hemolytic activity of the peptide was evaluated using mouse red blood cells (RBC). The RBCs were washed 3 times with phosphate buffered saline (PBS) until the supernatant was clear. Different concentrations of octopromycin (0, 25, 50, 100, 200, 300 μg/mL) were added to 1.5 ml Eppendorf tubes. The RBCs were added at a final concentration of 8% (v/v) in a total volume of 500 μL. The RBCs were incubated for 1 hour, and then centrifuged for 10 minutes and the absorbance of the supernatant was measured at 414 nm.
Percent hemolysis was calculated using Equation:
Hemolysis (%)=(A414 of Peptide−A414 of PBS)/(A414 of Triton−A414 of PBS)×100

Broadly, the inhibition is the share of the control response that was lost under treatment. Consider `O=C(N[C@H](CO)[C@H](O)c1ccc([N+](=O)[O-])cc1)C(Cl)Cl` [chloramphenicol, reference compound], for which the inhibition at 10 µg/mL with A. baumannii biofilm was 85.9%. Also, the “membrane permeability (PI/FDA staining)” value with A. baumannii [1] is “high membrane permeability”. Also, the “growth inhibition (time-kill kinetics)” value with A. baumannii [2] is “growth inhibition was similar to that of 50 μg/mL of octopromycin”.
In the series on mouse red blood cells, Triton X-100 came in with a hemolysis of 100%.
